Experimental data from patent US10047080B2, “(R)-2-methyl-piperazine derivatives as CXCR3 receptor modulators” (Idorsia Pharmaceuticals Ltd., priority 2015, dated 2018).

Key:
Format in all cases: cell-based
[1] = target: human CXCR3A (Homo sapiens (Human), UniProt P49682); assay: FLIPR assay (calcium flux, CXCL10-induced); details: CHO-K1 cells expressing human CXCR3A coupled to Galpha(16); CXCL10 agonist at 20 nM
Procedure: The bioactivity of compounds is tested in a fluorometric imaging plate reader (FLIPR: Molecular Devices) using engineered CHO-K1 cells expressing the human CXCR3A (GenBank: AY242128) coupled to a G protein (Galpha(16)). Cells are plated the day prior to bioassay in F12 medium supplemented with 10% FBS and G418 and hygromycin antibiotics to maintain recombinant selection. At the day of bioassay, cells are washed and dye loaded for one hour with Fluo-4-AM (Invitrogen) in Hanks Balanced Salt Solution (Invitrogen), buffered with 20 mM Hepes at pH 7.4 and sodium bicarbonate (0.038%), containing 5 mM probenecid. This buffer, but lacking the dye and containing probenecid at a concentration of 2.5 mM, is also used for washing steps (wash buffer); or lacking both dye and probenecid but supplemented with 0.1% BSA for compound dilution steps (dilution buffer). Cells are washed free of excess dye and 60 microliter of wash buffer is added. Stock solutions of test compounds are made up at a concentration of 10 mM in DMSO, and serially diluted in dilution buffer to concentrations required for inhibition dose response curves. After a 10 minute incubation period at 37° C., 10 microliters of each compound dilution are transferred from a compound plate to the plate containing the recombinant cells in the FLIPR instrument according to the manufacturer's instructions. Following basal readings, 10 microliter CXCL10 agonist at a concentration of 20 nM (from Peprotech) is added, again using the FLIPR instrument. Changes in fluorescence are monitored before and after addition of the test compounds. Emission peak values above base level after CXCL10 addition are exported after base line subtraction.
(§1) The calculated IC50 values may fluctuate depending on the daily assay performance. Fluctuations of this kind are known to those skilled in the art. In the case where IC50 values have been determined several times for the same compound, mean values are given. Data for the FLIPR assay are shown in Table 1 and for the receptor internalization assay (RIA) in Table 2.

[2] = target: CXCR3 (Homo sapiens (Human), UniProt P49682); assay: Receptor internalization assay (RIA) in human whole blood; details: final CXCL10 9 nM, CXCR3 surface expression on CD4 positive cells
Chain of CXCR3 (P49682 whole entry): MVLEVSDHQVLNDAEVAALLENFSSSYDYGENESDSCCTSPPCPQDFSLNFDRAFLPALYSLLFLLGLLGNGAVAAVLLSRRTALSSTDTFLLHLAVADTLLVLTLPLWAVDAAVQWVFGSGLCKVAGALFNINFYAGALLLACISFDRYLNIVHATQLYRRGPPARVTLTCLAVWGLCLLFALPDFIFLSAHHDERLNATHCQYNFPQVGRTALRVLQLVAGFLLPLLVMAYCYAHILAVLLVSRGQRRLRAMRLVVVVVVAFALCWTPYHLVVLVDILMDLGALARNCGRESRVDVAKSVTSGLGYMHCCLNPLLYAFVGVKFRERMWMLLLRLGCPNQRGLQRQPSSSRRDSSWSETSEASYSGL
Procedure: Stock solutions of test compounds are made up at a concentration of 10 mM in DMSO, and serially diluted in PBS containing 0.5% BSA to concentrations required for inhibition dose response curves. Diluted compounds are then mixed with an equal volume of CXCL10 (Peprotech) diluted in PBS. Anticoagulated venous human whole blood is added to the mixture, which is then incubated in a CO2 incubator at 37° C. to allow for ligand mediated receptor internalization (final CXCL10 concentration is 9 nM). After 30 min, the blood is mixed with fluorescently labeled CXCR3 and CD4 specific antibodies (Becton Dickinson) and incubated on ice for 10 minutes. Samples are then mixed with BD FACS Lysing Solution (Becton Dickinson) in order to eliminate red blood cells. After washing the cells with PBS containing 0.5% BSA, the samples are then analyzed in a flow cytometer (FACS Canto II, Becton Dickinson). For data analysis using FACSDiva software (Becton Dickinson), the mean fluorescence corresponding to CXCR3 cell surface expression was determined on CD4 positive cells.
as §1

[3] = target: hERG K channel (Homo sapiens (Human), UniProt Q12809); assay: hERG Q-Patch assay; details: CHO cells expressing hERG, K+ tail current
Chain of hERG K channel (Q12809 whole entry): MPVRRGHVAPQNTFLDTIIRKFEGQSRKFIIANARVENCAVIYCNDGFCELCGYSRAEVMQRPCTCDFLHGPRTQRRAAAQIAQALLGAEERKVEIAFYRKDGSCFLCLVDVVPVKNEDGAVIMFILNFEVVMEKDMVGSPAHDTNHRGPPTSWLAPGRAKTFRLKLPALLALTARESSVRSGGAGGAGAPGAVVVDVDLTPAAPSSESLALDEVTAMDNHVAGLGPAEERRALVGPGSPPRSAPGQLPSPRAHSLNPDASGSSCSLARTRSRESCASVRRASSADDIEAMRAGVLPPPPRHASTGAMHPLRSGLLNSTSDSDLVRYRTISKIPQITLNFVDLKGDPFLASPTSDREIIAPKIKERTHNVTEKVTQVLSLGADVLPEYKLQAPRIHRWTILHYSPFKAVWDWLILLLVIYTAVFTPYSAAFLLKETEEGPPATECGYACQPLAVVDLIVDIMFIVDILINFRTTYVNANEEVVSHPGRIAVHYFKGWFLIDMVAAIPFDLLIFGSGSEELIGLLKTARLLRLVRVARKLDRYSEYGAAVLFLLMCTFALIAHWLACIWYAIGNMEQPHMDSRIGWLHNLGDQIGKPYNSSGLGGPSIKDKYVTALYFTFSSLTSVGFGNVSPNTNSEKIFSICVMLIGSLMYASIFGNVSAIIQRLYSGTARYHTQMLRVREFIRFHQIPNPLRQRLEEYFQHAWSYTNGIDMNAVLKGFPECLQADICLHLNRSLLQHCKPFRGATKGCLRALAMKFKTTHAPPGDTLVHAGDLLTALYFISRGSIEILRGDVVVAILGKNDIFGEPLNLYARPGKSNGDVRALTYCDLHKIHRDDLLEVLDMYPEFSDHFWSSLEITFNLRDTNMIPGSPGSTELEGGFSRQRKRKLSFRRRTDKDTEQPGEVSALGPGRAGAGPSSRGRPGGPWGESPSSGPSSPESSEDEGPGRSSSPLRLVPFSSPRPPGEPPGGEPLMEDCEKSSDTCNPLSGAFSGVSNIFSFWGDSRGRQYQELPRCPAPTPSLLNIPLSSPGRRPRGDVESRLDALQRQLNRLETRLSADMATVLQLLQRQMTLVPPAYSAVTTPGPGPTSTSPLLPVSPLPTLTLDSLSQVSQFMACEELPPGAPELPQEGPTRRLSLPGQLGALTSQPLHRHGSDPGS
Procedure: Compounds are evaluated for block of the hERG K channel using CHO cells stably expressing the hERG gene (accession number U04270, bSys, Witterswil, Switzerland) and the QPatch robotic platform (Sophion, Ballerup, Denmark) in single-cell mode at room temperature. Cells are grown in culture flasks at 37° C. in 5% CO2, in culture medium (Ham's F-12 Nutrient Mixture, Invitrogen 21765-029) supplemented with 9% (v/v) fetal calf serum, 0.9% Penicillin/Streptomycin (10,000 U/mL, Invitrogen 15140148), 100 μg/mL Hygromycin B (Invitrogen 10687010). When the cells are ˜80% confluent (every 2-3 days), they are either split for further culture or used for electrophysiology. For further culture, cells are detached with 0.25% Trypsin EDTA solution (Invitrogen 25200-056) and a fraction of the cells (10-30%) is reseeded in culture medium. For electrophysiology, on the experimental day, cells are detached with 0.25% Trypsin EDTA solution and all cells are suspended in suspension medium (293 SFM II, Invitrogen 11686-029) supplemented with 20 mM HEPES and 0.04 mg/mL Trypsin inhibitor. Cells are kept in suspension medium at 32-35° C. in the QPatch robot until use, at which time aliquots are transferred to the extracellular solution (in mM: NaCl 150; KCl 4; CaCl2 1.2; MgCl2 1; HEPES 10; pH 7.4 with NaOH) containing 0.3% v/v DMSO and applied to the test plates. K+ currents are measured with the patch-voltage-clamp technique in the whole-cell configuration with the internal solution (in mM: KCl, 140; NaCl, 10; MgCl2, 1; HEPES, 10; EGTA, 5; pH=7.2 with KOH). Currents are low-pass filtered using the internal Bessel filter of the QPatch robot with a cut-off frequency of 2 kHz and are digitized at 10 kHz. K^+ tail currents are produced from a holding voltage of −80 mV by a 500-ms depolarization to +20 mV followed by a 500-ms repolarization to −40 mV; tail current amplitudes are measured at the end of the repolarization to −40 mV. The pulse pattern is repeated every 10 sec during the experiment, baseline K^+ current is measured after 3 min in extracellular solution, test-solution containing compound is then applied, and K^+ current in presence of compound is measured 3 minutes after application to the cells. The respective test-solution is prepared by (1) dissolving the test-compound in pure DMSO, (2) diluting this DMSO solution in extracellular solution, and (3) adding further DMSO, such that the final test-solution has a concentration of either 300 nM or 3000 nM of the test-compound and contains 0.3% v/v DMSO. Compound effects are quantified as % block by dividing the current in presence of compound by the baseline current; two or three experiments are performed for each compound and the final value represents the mean of the results of each experiment.

Chain of human CXCR3A (P49682 whole entry): as the sequence (P49682 whole entry) above

| SMILES | IC50 [1] | IC50 [2] | % block ([3]; concentration 300 nM) | % block ([3]; concentration 3000 nM) |
| --- | --- | --- | --- | --- |
| CC(O)c1ncn(CC(=O)N2CCN(c3sc(C(F)(F)F)nc3-c3cnc(C(F)(F)F)nc3)C[C@H]2C)n1 (stereo partly drawn) [Example 12, 2-[3-(1-Hydroxy-ethyl)-[1,2,4]triazol-1-yl]-1-{(R)-2-methyl-4-[2-trifluoromethyl-4-(2-trifluoromethyl-pyrimidin-5-yl)-thiazol-5-yl]-piperazin-1-yl}-ethanone] | 0.0009 µM | 0.564 µM | 0% | 4% |
| C[C@@H]1CN(c2sc(C(F)(F)F)nc2-c2cnc(C(F)(F)F)nc2)CCN1C(=O)Cn1cnc(C(C)(C)O)n1 [Example 13, 2-[3-(1-Hydroxy-1-methyl-ethyl)-[1,2,4]triazol-1-yl]-1-{(R)-2-methyl-4-[2-trifluoromethyl-4-(2-trifluoromethyl-pyrimidin-5-yl)-thiazol-5-yl]-piperazin-1-yl}-ethanone] | 0.0032 µM | 0.83 µM | 10% | 21% |
| C[C@@H]1CN(c2sc(C(F)(F)F)nc2-c2cnc(C(F)(F)F)nc2)CCN1C(=O)Cn1cnc(CO)n1 [Example 10, 2-(3-Hydroxymethyl-[1,2,4]triazol-1-yl)-1-{(R)-2-methyl-4-[2-trifluoromethyl-4-(2-trifluoromethyl-pyrimidin-5-yl)-thiazol-5-yl]-piperazin-1-yl}-ethanone] | 0.0052 µM | 0.809 µM | 6% | 17% |
| CCOc1ncc(-c2nc(C(F)(F)F)sc2N2CCN(C(=O)Cn3cnc(C(C)C)n3)[C@H](C)C2)cn1 [Example 1, 1-{(R)-4-[4-(2-Ethoxy-pyrimidin-5-yl)-2-trifluoromethyl-thiazol-5-yl]-2-methyl-piperazin-1-yl}-2-(3-isopropyl-[1,2,4]triazol-1-yl)-ethanone] | 0.0023 µM | 0.299 µM | 6% | 20% |
| C[C@@H]1CN(c2sc(C(F)(F)F)nc2-c2cnc(C(F)(F)F)nc2)CCN1C(=O)Cn1cnc(C(C)(C)C)n1 [Example 8, 2-(3-tert-Butyl-[1,2,4]triazol-1-yl)-1-{(R)-2-methyl-4-[2-trifluoromethyl-4-(2-trifluoromethyl-pyrimidin-5-yl)-thiazol-5-yl]-piperazin-1-yl}-ethanone] | 0.0016 µM | 0.349 µM | 4% | 23% |

Second part, led by results:

| IC50 [1] | IC50 [2] | SMILES | % block ([3]; concentration 300 nM) | % block ([3]; concentration 3000 nM) |
| --- | --- | --- | --- | --- |
| 0.0052 µM | 0.462 µM | Cc1ncn(CC(=O)N2CCN(c3sc(C(F)(F)F)nc3-c3cnc(C4CC4)nc3)C[C@H]2C)n1 [Example 21, 1-{(R)-4-[4-(2-Cyclopropyl-pyrimidin-5-yl)-2-trifluoromethyl-thiazol-5-yl]-2-methyl-piperazin-1-yl}-2-(3-methyl-[1,2,4]triazol-1-yl)-ethanone] | 3% | 17% |
| 0.0025 µM | 0.19 µM | CCc1ncn(CC(=O)N2CCN(c3sc(C(F)(F)F)nc3-c3cnc(C4CC4)nc3)C[C@H]2C)n1 [Example 15, 1-{(R)-4-[4-(2-Cyclopropyl-pyrimidin-5-yl)-2-trifluoromethyl-thiazol-5-yl]-2-methyl-piperazin-1-yl}-2-(3-ethyl-[1,2,4]triazol-1-yl)-ethanone] | 3% | 27% |
| 0.0016 µM | 0.189 µM | Cc1ncn(CC(=O)N2CCN(c3sc(C(F)(F)F)nc3-c3cnc(C(F)(F)F)nc3)C[C@H]2C)n1 [Example 20, 2-(3-Methyl-[1,2,4]triazol-1-yl)-1-{(R)-2-methyl-4-[2-trifluoromethyl-4-(2-trifluoromethyl-pyrimidin-5-yl)-thiazol-5-yl]-piperazin-1-yl}-ethanone] | 2% | 18% |
